What was measured:
[1] = Low-speed centrifugation to sediment unincorporated HPPH; assay type: physicochemical; conditions: 6,000 rpm, 20-30 minutes, HBS
Experimental: HPPH-loaded vesicles were placed in microcentrifuge tubes and centrifugations were carried out at 6,000 rpm (˜3000 RCF) for 30 minutes at 20-25° C. using a fixed-angle rotor centrifuge. Supernatants containing the vesicle-incorporated HPPH were collected, and any unincorporated HPPH, which aggregates in aqueous environment, was sedimented in the pellet fraction. A sample of an equivalent amount of free HPPH was suspended in HBS (without the lipids), and mixed by vortexing. The free HPPH aggregated in the buffer, which could be sedimented in the pelleted fraction upon centrifugation at low-speed as described above. This protocol presented a simple procedure to remove unincorporated HPPH from the vesicle-associated HPPH.
Free, unincorporated HPPH aggregates in aqueous buffer due to its insolubility, and can be pelleted upon sedimentation by low-speed centrifugation. Size exclusion chromatography (PD10 columns, GE Scientific) was used to separate unincorporated HPPH from the vesicles; however, in these embodiments, it was observed that sonication of HPPH dispersion in the HBS (in the absence of lipids) generated smaller HPPH aggregates that coeluted (in part) with vesicle-associated HPPH on the PD10 column. […] The HPPH suspended in HBS (in the absence of lipids) remained in suspension prior to centrifugation as determined by absorbance measurements. […]

[2] = 661 nm laser treatment (HPPH photodamage); assay type: physicochemical; conditions: five minutes
Experimental: 661 nm Laser Treatment of Vesicle20-HPPH: Vesicle20-HPPH (containing 50-100 μg lipid & 2.5-5 μg HPPH) were placed in a microcentrifuge tube and irradiated horizontally in a box fitted with a diode laser cube at room temperature. Irradiation was done for five minutes using the 661 nm laser (Coherent Cube Part Number 1130061) at a power output of 90 mW (125 mW/cm^2, as measured by the Thorlabs PM200 Energy Meter with the S121C Photodiode Power Sensor). Free HPPH dispersed in Tween 80 (Tween 80-HPPH) (4) and DPPC:DC8,9PC:DSPEG2000 vesicles (Table 1B) were used as controls to compare the extents of photodamage.
The efficiency of photoactivation by HPPH upon laser exposure depends on its environment and aggregation state. Laser treatment of HPPH results in photodamage and serves as an indication of its activity. Therefore, the photodamage of vesicle-formulated HPPH was compared with Tween 80-HPPH and a formulation comprising DPPC and a lower concentration of DSPE-PEG2000 (see Table 2). The extent of photodamage was tested using Vesicle10-HPPH containing 1:0.05 Lipid:HPPH ratios (Table 2) upon treatment with 661 nm laser for five minutes.

[3] = cited from earlier work

In the case of `CCCCCCOC(C)c1c(C)c2cc3nc(c4c5[nH]c(cc6nc(cc1[nH]2)C(C)=C6CC)c(C)c5C(=O)C4)[C@@H](CCC(=O)O)[C@@H]3C` (stereo partly shown) [HPPH, 2-[1-hexyloxyethyl]-2-devinyl pyropheophorbide-a], the “HPPH sedimented into the pelleted fraction” value [1] is given as “nearly complete sedimentation”, the “extent of photodamage (HPPH fluorescence remaining after laser)” value [2] is given as “did not result in a decrease in fluorescence” and the “molar extinction ε” value ([3]; at 665 nm) is given as 47,500 M^−1 cm^−1. For the same compound, the “log P” value ([3]; physiological pH) was 5.6.

From patent US12178907B2, “Binary lipid bilayer-containing vesicles comprising embedded cytotoxic agents and methods of making and using the same” (The USA, as represented by the Secretary, Department of …, priority 2018, dated 2024)
